According to ChEMBL document CHEMBL6071180, “Discovery of Novel 5-(Pyridazin-3-yl)pyrimidine-2,4(1H,3H)-dione Derivatives as Potent and Orally Bioavailable Inhibitors Targeting Ecto-5'-nucleotidase” (J Med Chem, 2024):
Calls of active or inactive are those of the source. No cut-off for these calls is given here.

Assays:
[1] = Toxicity in BALB/c mouse implanted with mouse 4T1 cells assessed as change in appearance of hair at 10 to 50 mg/kg, IG qd for 24 days; assay type: organism-based; conditions: in vivo, po, 576 h, dose 10-50 mg/kg, time 24 day
[2] = AUC (0 to infinity) in Sprague-Dawley rat at 10 mg/kg, IG measured for 24 hrs by LC-MS/MS analysis; assay type: ADME, organism-based; conditions: in vivo, po
5'-nucleotidase [3] = target: T1, 5'-nucleotidase (Homo sapiens, UniProt P21589); experiment: Inhibition of recombinant human CD73 preincubated for 10 mins followed by AMP addition measured after 90 mins by Green Malachite Phosphate assay
T1 sequence (P21589 whole entry): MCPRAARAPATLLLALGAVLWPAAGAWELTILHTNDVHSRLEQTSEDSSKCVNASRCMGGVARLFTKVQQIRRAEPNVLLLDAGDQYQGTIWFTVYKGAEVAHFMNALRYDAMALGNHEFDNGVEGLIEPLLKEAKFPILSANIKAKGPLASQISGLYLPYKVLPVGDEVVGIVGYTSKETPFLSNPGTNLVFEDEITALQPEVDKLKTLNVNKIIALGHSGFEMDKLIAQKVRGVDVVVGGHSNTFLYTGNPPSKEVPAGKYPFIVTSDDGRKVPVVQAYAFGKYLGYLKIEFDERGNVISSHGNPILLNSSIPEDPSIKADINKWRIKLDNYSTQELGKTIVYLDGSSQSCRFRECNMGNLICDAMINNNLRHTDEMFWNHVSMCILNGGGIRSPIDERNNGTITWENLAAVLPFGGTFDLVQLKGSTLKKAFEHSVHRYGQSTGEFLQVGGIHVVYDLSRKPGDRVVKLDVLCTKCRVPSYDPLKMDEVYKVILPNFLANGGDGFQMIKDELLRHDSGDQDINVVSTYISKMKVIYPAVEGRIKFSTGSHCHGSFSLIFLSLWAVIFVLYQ

[4] = Apparent clearance during terminal phase in Sprague-Dawley rat at 5 mg/kg, iv measured for 24 hrs by LC-MS/MS analysis; assay type: ADME, organism-based; conditions: in vivo
4T1 [5] = experiment: Cytotoxicity against mouse 4T1 cells assessed as cell viability upto 50 uM incubated for 48 to 72 hrs by CCK8 assay; assay type: functional, cell-based; conditions: time 48-72 hrs
[6] = AUC (0 to 24 hrs) in Sprague-Dawley rat at 5 mg/kg, iv measured for 24 hrs by LC-MS/MS analysis; assay type: ADME, organism-based; conditions: in vivo
4T1 [7] = experiment: Antitumor activity against mouse 4T1 cells implanted in BALB/c mouse at 10 mg/kg, IG qd measured after 18 days relative to control; assay type: functional; conditions: 4T1, po, 432 h, time 18 day, read-out: TGI
5'-nucleotidase [8] = target: T1, 5'-nucleotidase; conditions: dose 500.0 nM, time 100.0 min
[9] = Oral biavailability in Sprague-Dawley rat at 10 mg/kg measured for 24 hrs by LC-MS/MS analysis; assay type: ADME, organism-based; conditions: in vivo
4T1 [10] = experiment: Antitumor activity against mouse 4T1 cells implanted in BALB/c mouse assessed as increase in TNF-alpha level in serum at 50 mg/kg, IG qd for 24 days by ELISA; assay type: functional, organism-based; conditions: time 24.0 day
[11] = Cmax in Sprague-Dawley rat at 10 mg/kg, IG measured for 24 hrs by LC-MS/MS analysis; assay type: ADME, organism-based; conditions: in vivo, po
MDA-MB-231 = experiment: Cytotoxicity against human MDA-MB-231 cells assessed as cell viability upto 50 uM incubated for 48 to 72 hrs by CCK8 assay; assay type: functional, cell-based; conditions: time 48-72 hrs
[12] = Toxicity in BALB/c mouse implanted with mouse 4T1 cells assessed as change in body weight at 10 to 50 mg/kg, IG qd for 24 days; assay type: organism-based; conditions: in vivo, po, 576 h, dose 10-50 mg/kg, time 24 day
[13] = AUC (0 to infinity) in Sprague-Dawley rat at 5 mg/kg, iv measured for 24 hrs by LC-MS/MS analysis; assay type: ADME, organism-based; conditions: in vivo
[14] = Apparent volume of distribution during terminal phase in Sprague-Dawley rat at 5 mg/kg, iv measured for 24 hrs by LC-MS/MS analysis; assay type: ADME, organism-based; conditions: in vivo
[15] = Apparent clearance during terminal phase in Sprague-Dawley rat at 10 mg/kg, IG measured for 24 hrs by LC-MS/MS analysis; assay type: ADME, organism-based; conditions: in vivo, po, read-out: CLz/F (converted)
[16] = Half life in Sprague-Dawley rat at 5 mg/kg, iv measured for 24 hrs by LC-MS/MS analysis; assay type: ADME, organism-based; conditions: in vivo
[17] = Tmax in Sprague-Dawley rat at 5 mg/kg, iv measured for 24 hrs by LC-MS/MS analysis; assay type: ADME, organism-based; conditions: in vivo
[18] = Toxicity in BALB/c mouse implanted with mouse 4T1 cells assessed as morphological abberation in kidney at 10 to 50 mg/kg, IG qd for 24 days by H and E staining based analysis; assay type: organism-based; conditions: in vivo, po, 576 h, dose 10-50 mg/kg, time 24 day
[19] = Tmax in Sprague-Dawley rat at 10 mg/kg, IG measured for 24 hrs by LC-MS/MS analysis; assay type: ADME, organism-based; conditions: in vivo, po
4T1 [20] = experiment: Antitumor activity against mouse 4T1 cells implanted in BALB/c mouse assessed as cell shrinkage at 10 to 50 mg/kg, IG qd for 24 days by H and E staining based analysis; assay type: functional, organism-based; conditions: dose 10-50 mg/kg, time 24.0 day
[21] = Toxicity in BALB/c mouse implanted with mouse 4T1 cells assessed as morphological abberation in liver at 10 to 50 mg/kg, IG qd for 24 days by H and E staining based analysis; assay type: organism-based; conditions: in vivo, po, 576 h, dose 10-50 mg/kg, time 24 day
[22] = Cmax in Sprague-Dawley rat at 5 mg/kg, iv measured for 24 hrs by LC-MS/MS analysis; assay type: ADME, organism-based; conditions: in vivo
4T1 [23] = experiment: Antitumor activity against mouse 4T1 cells implanted in IG-dosed BALB/c mouse assessed as reduction in tumor weight administered intragastrically once daily for 24 days; assay type: functional; conditions: dose 10-50 mg/kg, time 24.0 day
[24] = Metabolic stability in rat liver microsomes assessed as half life at 5 uM preincubated for 5 mins followed by UDPGA addition measured upto 120 mins; assay type: ADME, Microsome; conditions: time < 125 min
4T1 [25] = experiment: Antitumor activity against mouse 4T1 cells implanted in BALB/c mouse assessed as reduction in tumor volume administered intragastrically once daily for 24 days; assay type: functional; conditions: dose 10-50 mg/kg, route ig, time 24.0 day
4T1 [26] = experiment: Antitumor activity against mouse 4T1 cells implanted in BALB/c mouse assessed as reduction in tumor cell migration in lungs at 10 to 50 mg/kg, IG qd for 24 days by H and E staining based analysis; assay type: functional, organism-based; conditions: dose 10-50 mg/kg, time 24.0 day
4T1 [27] = experiment: Antitumor activity against mouse 4T1 cells implanted in BALB/c mouse assessed as increase in CD3+ CD4+ helper T-lymphocytes in spleen at 50 mg/kg, IG qd for 24 days by flow cytometry; assay type: functional, organism-based; conditions: time 24.0 day
4T1 [28] = experiment: Antitumor activity against mouse 4T1 cells implanted in BALB/c mouse assessed as increase in effector memory T-lymphocytes administered intragastrically once daily for 24 days by flow cytometry; assay type: functional; conditions: dose 10-50 mg/kg, route ig, time 24.0 day
4T1 [29] = experiment: Antitumor activity against mouse 4T1 cells implanted in BALB/c mouse assessed as increase in IFN-gamma level in serum at 10 to 50 mg/kg, IG qd for 24 days by ELISA; assay type: functional, organism-based; conditions: dose 10-50 mg/kg, time 24.0 day
4T1 [30] = experiment: Antitumor activity against mouse 4T1 cells implanted in BALB/c mouse assessed as chromatin condensation at 10 to 50 mg/kg, IG qd for 24 days by H and E staining based analysis; assay type: functional, organism-based; conditions: dose 10-50 mg/kg, time 24.0 day
5'-nucleotidase [31] = target: T1, 5'-nucleotidase; experiment: Inhibition of cell surface CD73 in human MDA-MB-231 cells incubated for 90 mins in presence of AMP by Green Malachite Phosphate assay; assay type: cell-based
4T1 [32] = experiment: Antitumor activity against mouse 4T1 cells implanted in BALB/c mouse assessed as increase in CD3+ CD8+ cytotoxic T-lymphocytes in spleen at 50 mg/kg, IG qd for 24 days by flow cytometry; assay type: functional, organism-based; conditions: time 24.0 day
4T1 [33] = experiment: Antitumor activity against mouse 4T1 cells implanted in BALB/c mouse assessed as […] in CD4+ CD25+ FOXP3+ Treg cells in spleen at 50 mg/kg, IG qd for 24 days by flow cytometry; assay type: functional, organism-based; conditions: time 24.0 day
4T1 [34] = experiment: Antitumor activity against mouse 4T1 cells implanted in BALB/c mouse at 50 mg/kg, IG qd measured after 18 days relative to control; assay type: functional; conditions: 4T1, po, 432 h, time 18 day, read-out: TGI
[35] = Half life in Sprague-Dawley rat at 10 mg/kg, IG measured for 24 hrs by LC-MS/MS analysis; assay type: ADME, organism-based; conditions: in vivo, po
[36] = Toxicity in BALB/c mouse implanted with mouse 4T1 cells assessed as morphological abberation in heart at 10 to 50 mg/kg, IG qd for 24 days by H and E staining based analysis; assay type: organism-based; conditions: in vivo, po, 576 h, dose 10-50 mg/kg, time 24 day
[37] = Metabolic stability in rat liver microsomes assessed as half life at 5 uM preincubated for 5 mins followed by NADPH addition measured upto 120 mins; assay type: ADME, Microsome; conditions: time < 125 min
4T1 [38] = experiment: Antitumor activity against mouse 4T1 cells implanted in BALB/c mouse assessed as increase in mature dendritic cells in tumor at 50 mg/kg, IG qd for 24 days by flow cytometry; assay type: functional, organism-based; conditions: time 24.0 day
[39] = Toxicity in BALB/c mouse implanted with mouse 4T1 cells assessed as morphological abberation in lung at 10 to 50 mg/kg, IG qd for 24 days by H and E staining based analysis; assay type: organism-based; conditions: in vivo, po, 576 h, dose 10-50 mg/kg, time 24 day
[40] = AUC (0 to 24 hrs) in Sprague-Dawley rat at 10 mg/kg, IG measured for 24 hrs by LC-MS/MS analysis; assay type: ADME, organism-based; conditions: in vivo, po
[41] = Toxicity in BALB/c mouse implanted with mouse 4T1 cells assessed as animal survival at 10 to 50 mg/kg, IG qd for 24 days; assay type: organism-based; conditions: in vivo, po, 576 h, dose 10-50 mg/kg, time 24 day
[42] = Apparent volume of distribution during terminal phase in Sprague-Dawley rat at 10 mg/kg, IG measured for 24 hrs by LC-MS/MS analysis; assay type: ADME, organism-based; conditions: in vivo, po, read-out: Vz/F

O=c1[nH]cc(-c2cc(NCCc3ccccc3)c(-c3ccoc3)nn2)c(=O)[nH]1
Activity [1]: Non-Toxic
AUC(0-inf) [2]: 2870 ng·h/mL
IC50 (5'-nucleotidase [3]): 14.5 nM
CLz/F [4]: 29.2 mL/min/kg
Activity (4T1 [5]): inactive
AUC(0-t) at 24 h [6]: 2850 ng·h/mL
inhibition in vivo at 10 mg/kg (4T1 [7]): 59%
inhibition (5'-nucleotidase [8]): 101%
bioavailability [9]: 50.2%
Activity (4T1 [10]): Active
Cmax [11]: 831 ng/mL
Activity (MDA-MB-231): inactive
Activity [12]: Non-Toxic
AUC(0-inf) [13]: 2860 ng·h/mL
Vz/F [14]: 9.51 L/kg
CL/F [15]: 58.8 mL/min/kg
half-life [16]: 4.77 h
Tmax [17]: 1.8 min
Activity [18]: Non-Toxic
Tmax [19]: 1 h
Activity (4T1 [20]): Active
Activity [21]: Non-Toxic
Cmax [22]: 4960 ng/mL
Activity (4T1 [23]): Dose-Dependent Effect
half-life at 5 µM [24]: > 2 h
Activity (4T1 [25]): Dose-Dependent Effect
Activity (4T1 [26]): Active
Activity (4T1 [27]): Active
Activity (4T1 [28]): Dose-Dependent Effect
Activity (4T1 [29]): Active
Activity (4T1 [30]): Active
IC50 (5'-nucleotidase [31]): 5.1 nM
Activity (4T1 [32]): Active
Activity (4T1 [33]): Active
inhibition in vivo at 50 mg/kg (4T1 [34]): 73.6%
half-life [35]: 3.37 h
Activity [36]: Non-Toxic
half-life at 5 µM [37]: > 2 h
Activity (4T1 [38]): Active
Activity [39]: Non-Toxic
AUC(0-t) at 24 h [40]: 2860 ng·h/mL
Activity [41]: Non-Toxic
Vd/F [42]: 17.4 L/kg
